Tests used:
Experiment in all cases: Agar well diffusion assay
Format in all cases: cell-based
[1] = tested on: Bacillis subtilis (RCMB 010067); settings: 100 μl per well, mean ± SD
Experimental: (§1) Antimicrobial activity of nanoparticles was determined using the agar well diffusion assay method as described by Holder and Boyce, 1994. Three bacterial (two gram positive and one gram negative) and […], namely, Bacillis suhtilis (RCMB 010067), […] pneumoniae (RCMB 010011), Escherichia coli (RCMB 010052), and Aspergillus fumigatus (RCMB 02568). The tested organisms were sub-cultured on nutrient agar medium (Oxoid laboratories, UK) for bacteria and Sabouraud dextrose agar (Oxoid laboratories, UK) for fungi. Ampicillin and Gentamicin were used as positive control for gram positive and gram negative bacteria, respectively, while Amphotericin B was used for fungi. The plates were done in triplicates. Bacterial cultures were incubated at 37° C. for 24 h, while the fungal cultures were incubated at 25-30° C. for 3-7 days. Antimicrobial activity was determined by measuring the zone of inhibition [A. Agwa, (2000)]. The antimicrobial effect of the B. aegyptiaca nanoparticles was evaluated against different gram positive and gram negative bacteria as well as fungi. The results of the antimicrobial effects of the synthesized nanoparticles are compiled in the Tables below.

[2] = tested on: Bacillis subtilis (RCMB 010068); settings: samples at 100 μl, mean ± SD
Experimental: as §1

[3] = tested on: Streptococcus pneumoniae (RCMB 010011); settings: samples at 100 μl, mean ± SD
Experimental: as §1

[4] = tested on: Staphylococcus aureus (RCMB 010028); settings: 100 μl per well, mean ± SD
[5] = tested on: Pseudomonas aeruginosa (RCMB 010043); settings: 100 μl per well, mean ± SD
[6] = tested on: Klebsiella pneumoniae (RCMB 000111); settings: 100 μl per well, mean ± SD
[7] = tested on: Escherichia coli (RCMB 010052); settings: 100 μl per well, mean ± SD
Experimental: as §1

[8] = tested on: Salmonella typhimurium (RCMB 010072); settings: 100 μl per well, mean ± SD
[9] = tested on: Escherichia coli (RCMB 010054); settings: samples at 100 μl, mean ± SD
[10] = tested on: Geotricum candidum (RCMB 05097); settings: 100 μl per well, mean ± SD
[11] = tested on: Aspergillus fumigatus (RCMB 02568); settings: 100 μl per well, mean ± SD
Experimental: as §1

[12] = tested on: Aspergillus fumigatus (RCMB 02567); settings: samples at 100 μl, mean ± SD
Experimental: as §1

Compound: CC1(C)S[C@@H]2[C@H](NC(=O)[C@H](N)c3ccccc3)C(=O)N2[C@H]1C(=O)O [Ampicillin]
- Mean zone of inhibition beyond well diameter (6 mm) [1]: 32.4 ± 0.10 mm
- Diameter of the inhibition zone beyond the well diameter of 6 mm [2]: 31.3 ± 1.5 mm
- Diameter of the inhibition zone beyond the well diameter of 6 mm [3]: 21.0 ± 1.0 mm
- Mean zone of inhibition beyond well diameter (6 mm) [4]: 27.4 ± 0.18 mm

Compound: Gentamicin
- Mean zone of inhibition beyond well diameter (6 mm) [5]: 17.3 ± 0.15 mm
- Mean zone of inhibition beyond well diameter (6 mm) [6]: 20.2 ± 0.25 mm
- Mean zone of inhibition beyond well diameter (6 mm) [7]: 22.3 ± 0.18 mm
- Mean zone of inhibition beyond well diameter (6 mm) [8]: 25.4 ± 0.18 mm
- Diameter of the inhibition zone beyond the well diameter of 6 mm [9]: 20.3 ± 0.58 mm

Compound: C[C@@H]1[C@H](O)[C@@H](C)/C=C/C=C/C=C/C=C/C=C/C=C/C=C/[C@H](O[C@@H]2O[C@H](C)[C@@H](O)[C@H](N)[C@@H]2O)C[C@@H]2O[C@](O)(C[C@@H](O)C[C@@H](O)[C@H](O)CC[C@@H](O)C[C@@H](O)CC(=O)O[C@H]1C)C[C@H](O)[C@H]2C(=O)O [Amphotericin B]
- Mean zone of inhibition beyond well diameter (6 mm) [10]: 28.7 ± 0.22 mm
- Mean zone of inhibition beyond well diameter (6 mm) [11]: 23.7 ± 0.10 mm
- Diameter of the inhibition zone beyond the well diameter of 6 mm [12]: 21.7 ± 1.5 mm

Reference: patent US9889170B1, “Synthesis of nanoparticles using Balanites aegyptiaca” (KING SAUD UNIVERSITY, priority 2016, dated 2018)
